We go through three compounds from patent US11160782B2, “Method for producing nobiletin-containing solid dispersion” (KAO CORPORATION, priority 2016, dated 2021).

Data set [1] is described as follows: Transferability of nobiletin into blood circulation during oral administration to mice. The format is in vivo. The settings on record: male, C57BL/6J, mouse, 200 mg/kg, plasma. The text has this: [Evaluation of Transferability of Nobiletin into Blood Circulation During Oral Administration to Mice]
C57BL/6J mice (male, 6 week-old) were purchased from CLEA Japan, Inc. The mice were habituated to the environment for one week or more, and were fed to a test. Each of the test groups consisted of 8 mice, which was believed to be the minimum number required to ensure the statistical significance of the test system.
Mice were bred in the facility for one week under ad libitum feeding of solid food (CE-s), and the test was performed using the mice. The mice were fasted for 16 hours, and blood was initially collected from the orbital sinus of each mouse under isoflurane anesthesia (heparin-treated micro hematocrit blood collection tube, manufactured by VITREX Medical A/S). Each sample solution was then administrated into the stomach of the mice at a dose of 200 mg/kg weight per mouse using a probe. […]
The collected blood samples were centrifuged at 12,000 rpm for 10 minutes, and 30 μL of plasma in each sample was recovered into an Eppendorf tube. […] The nobiletin concentration in the plasma was measured by LC-MS/MS.
30 μL of acetonitrile was added to 30 μL of the recovered plasma, was stirred with a vortex mixer for 5 seconds, and was centrifuged at 12,000 rpm for 15 minutes at room temperature. […] The nobiletin concentration was then measured by LC-MS/MS.

The nature of data set [2]: Solubility in water at 25° C. of the poorly water-soluble raw material. The conditions noted are these: raw material (poorly water-soluble substance) of the composition.

For `COc1ccc(-c2cc(=O)c3c(OC)c(OC)c(OC)c(OC)c3o2)cc1OC` [Nobiletin, 3′,4′,5,6,7,8-hexamethoxyflavone], the AUC in data set [1] (read-out: AUC (area under the blood concentration transition curve) (converted)) was 5380 ng·h/mL. In addition, the Cmax in data set [1] (read-out: Cmax (maximum blood concentration of nobiletin)) was found to be 3700 ng/mL. Besides, in data set [2], the “Solubility in water at 25° C.” value was 1 ppm.
Turning to `O=c1oc2c(O)c(O)cc3c(=O)oc4c(O)c(O)cc1c4c23` [Ellagic acid, Ellagic acid dihydrate], the “Solubility in water at 25° C.” value in data set [2] is on record as 4 ppm.
For the compound `COc1ccc([C@@H]2CC(=O)c3c(O)cc(O[C@@H]4O[C@H](CO[C@@H]5O[C@@H](C)[C@H](O)[C@@H](O)[C@H]5O)[C@@H](O)[C@H](O)[C@H]4O)cc3O2)cc1O` [Hesperidin], the “Solubility in water at 25° C.” value in data set [2] is 0.5 ppm.
